Results on 12 molecules are retold here after ChEMBL document CHEMBL1201862, “PubChem BioAssay data set” (2004).

Molecules are shown by their SMILES.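 All cell lines were grown in 96-well plates and treated with compound for 48 hours. GI50 = concentration required for 50% inhibition of growth.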 Calls of active or inactive are those of the source. Rule as the data show it: active = GI50 up to about 1.1 µM and inactive = higher.

Some test systems named below: CAKI-1; CCRF-CEM; HCT-116; HCT-15; HOP-62; LOX IMVI; M19-MEL; NCI-H460; OVCAR-4; OVCAR-5; SF-539; SK-MEL-5; SK-OV-3; SR; TK-10; UO-31; HCC 2998; DU-145; MDA-N; T47D.
Holding throughout (assay): NCI tumour cell line growth inhibition, 48 h

As for `COc1nc(NC2OC(COC(C)=O)C(OC(C)=O)C(OC(C)=O)C2OC(C)=O)c(-c2csc(N)n2)c(=O)n1C` (stereo not given), the GI50 in the assay with CAKI-1 was 32.3 µM (inactive); in the assay on CCRF-CEM, > 100 µM (inactive); in the assay with HCT-116 it was 43.8 µM (inactive); with HCT-15, more than 100 µM; in the assay on HOP-62 it was 29.6 µM (inactive); with LOX IMVI, > 100 µM (inactive). Also, the GI50 with M19-MEL was 36.5 µM (inactive); in the assay on NCI-H460, 73.1 µM (inactive); with OVCAR-4, 19.4 µM (inactive); in the assay on OVCAR-5, > 100 µM (inactive); in the assay on SF-539, 54.2 µM (inactive); in the assay with SK-MEL-5, 43.3 µM (inactive). Further, the GI50 with SK-OV-3 was > 100 µM (inactive); with SR, > 100 µM (inactive); in the assay on TK-10, > 100 µM (inactive); in the assay on UO-31 it was 52.8 µM (inactive).

With `ClC(/N=N/c1ccccc1)=N/Nc1ccccc1`, the GI50 in the assay on CAKI-1 is 33.6 µM (inactive); in the assay on CCRF-CEM, > 100 µM (inactive); in the assay on HCC 2998, 41.8 µM (inactive); in the assay with HCT-116, > 100 µM (inactive); in the assay with HOP-62, > 100 µM (inactive); in the assay with LOX IMVI, 58.5 µM (inactive). For the same molecule, the GI50 with M19-MEL, in the assay with NCI-H460, with OVCAR-4, in the assay on OVCAR-5, in the assay on SF-539 and in the assay with SK-OV-3 was > 100 µM (inactive) throughout. Besides, the GI50 in the assay with SR was > 100 µM (inactive); in the assay with TK-10, 21.3 µM (inactive).

As for `CC1COS(=O)O1` (stereo not given), the GI50 with CAKI-1 is > 100 µM (inactive); in the assay on CCRF-CEM, > 100 µM (inactive); with HCC 2998, > 100 µM (inactive); in the assay on HCT-116, > 100 µM (inactive); with HCT-15, more than 100 µM; in the assay on HOP-62, > 100 µM (inactive). In addition, the GI50 in the assay on LOX IMVI, in the assay with M19-MEL, with NCI-H460, with OVCAR-4, in the assay with OVCAR-5 and in the assay on SF-539 was > 100 µM (inactive) throughout. Further, the GI50 with SK-MEL-5, in the assay on SK-OV-3, with SR, with TK-10 and with UO-31 was > 100 µM (inactive) throughout.

As to `CCC(CC)n1c(C)nc2c1C(=O)c1ccccc1C2=O`, the GI50 with CCRF-CEM was 42.6 µM (inactive); in the assay with HCC 2998 it was 77.4 µM (inactive); with HCT-116 it was 19.3 µM (inactive); in the assay with HCT-15, 9.18 µM; in the assay on HOP-62, 33.4 µM (inactive); in the assay on LOX IMVI, 19.5 µM (inactive). The GI50 with M19-MEL was 14.9 µM (inactive); with NCI-H460, 20.7 µM (inactive); with OVCAR-4, 40.7 µM (inactive); in the assay on SF-539, 34 µM (inactive); with SK-MEL-5 it was 15.7 µM (inactive); in the assay with SK-OV-3, > 100 µM (inactive). Besides, the GI50 in the assay with SR is 25.8 µM (inactive); with TK-10, 35.9 µM (inactive); in the assay on UO-31, 19.5 µM (inactive).

`C=COC(=O)N[C@H]1CCc2cc(OC)c(OC)c(OC)c2-c2ccc(SC)c(=O)cc21`: the GI50 in the assay on CAKI-1 is < 0.01 µM (active); in the assay with CCRF-CEM, < 0.01 µM (active); with DU-145 it was < 0.01 µM (active); with HCC 2998, < 0.01 µM (active); with HCT-116, < 0.01 µM (active); with HCT-15 it was less than 0.01 µM. In addition, the GI50 in the assay with HOP-62 was < 0.0157 µM (active); in the assay with LOX IMVI, < 0.01 µM (active); in the assay on M19-MEL, < 0.01 µM (active); with MDA-N it was < 0.01 µM (active); with NCI-H460, < 0.01 µM (active); with OVCAR-4 it was 4.97 µM (inactive). Besides, the GI50 in the assay on OVCAR-5 was 0.173 µM (active); in the assay on SF-539, < 0.01 µM (active); in the assay on SK-MEL-5, < 0.01 µM (active); with SK-OV-3, 0.0255 µM (active); with SR, < 0.01 µM (active); with T47D, 34 µM (inactive). Also, the GI50 in the assay on TK-10 is 0.177 µM (active); with UO-31, < 0.048 µM (active).

`O=C1c2ccccc2C(=O)c2nc3ccc(Cl)cc3cc21`: the GI50 was > 100 µM (inactive) with CAKI-1; > 100 µM (inactive) with CCRF-CEM; > 100 µM (inactive) in the assay on HCC 2998; > 100 µM (inactive) with HCT-116; more than 100 µM in the assay on HCT-15; > 100 µM (inactive) with HOP-62. The GI50 in the assay on LOX IMVI, in the assay on M19-MEL, in the assay with NCI-H460, in the assay with OVCAR-4, in the assay on OVCAR-5 and with SF-539 was > 100 µM (inactive) each time. The GI50 in the assay with SK-MEL-5, in the assay with SK-OV-3, in the assay on SR, in the assay with TK-10 and with UO-31 was > 100 µM (inactive) in each case.

Turning to `CN(C(=O)C12C3C4C1C1C2C3C41C(N)=O)C(C)(C)C` (stereo not given), the GI50 with CAKI-1, in the assay with CCRF-CEM, in the assay on HCC 2998, in the assay on HCT-116, with M19-MEL and with NCI-H460 was > 100 µM (inactive) in each case. In addition, the GI50 in the assay on OVCAR-4, with OVCAR-5, in the assay with SF-539, with SK-MEL-5, in the assay on SK-OV-3 and in the assay on SR was > 100 µM (inactive) in each case. The GI50 in the assay on TK-10 and in the assay on UO-31 was > 100 µM (inactive) throughout.

`CC(=O)OCC1OC(n2c(=O)[nH]c(=O)c3nn[nH]c32)C(OC(C)=O)C(OC(C)=O)C1OC(C)=O` (stereo not given): the GI50 was > 100 µM (inactive) in the assay with CAKI-1; > 100 µM (inactive) with CCRF-CEM; > 100 µM (inactive) with HCC 2998; > 100 µM (inactive) with HCT-116; more than 100 µM in the assay with HCT-15; > 100 µM (inactive) in the assay on HOP-62. The GI50 in the assay with LOX IMVI was > 100 µM (inactive); with M19-MEL, > 100 µM (inactive); in the assay on NCI-H460 it was > 100 µM (inactive); in the assay on OVCAR-4 it was 66.5 µM (inactive); in the assay on OVCAR-5 it was > 100 µM (inactive); with SK-MEL-5, > 100 µM (inactive). In addition, the GI50 with SK-OV-3, in the assay with SR, with TK-10 and with UO-31 was > 100 µM (inactive) each time.

In the case of `O=C(N/C(=C\c1ccc(Oc2ccc(Cl)c(Cl)c2)cc1)c1nc2ccccc2[nH]1)c1ccccc1`, the GI50 with CAKI-1 was 21 µM (inactive); in the assay with CCRF-CEM, 17.1 µM (inactive); in the assay with HCC 2998, 16.4 µM (inactive); with HCT-15, 23.2 µM; with M19-MEL, 27.6 µM (inactive); in the assay with OVCAR-4 it was 16.6 µM (inactive). In addition, the GI50 in the assay with OVCAR-5 is 22.4 µM (inactive); with SF-539 it was 18 µM (inactive); in the assay with SK-MEL-5, 16.1 µM (inactive); with SK-OV-3 it was 26.2 µM (inactive); in the assay with SR, 25.6 µM (inactive); in the assay on TK-10 it was 26.1 µM (inactive). The GI50 with UO-31 is 14.1 µM (inactive).

Regarding `CC(C)CC(NC(=O)OC(C)(C)C)C(=O)Nc1ccc(Nc2nc(F)nc(-c3c4ccccc4cn3C)n2)cc1` (stereo not given), the GI50 with CAKI-1 was > 100 µM (inactive); in the assay on CCRF-CEM, 33.3 µM (inactive); in the assay on DU-145, 20.3 µM (inactive); in the assay on HCC 2998, 15.8 µM (inactive); with HCT-116 it was 72.1 µM (inactive); in the assay on HCT-15, more than 68.9 µM. Moreover, the GI50 is 12.7 µM (inactive) in the assay with HOP-62; > 100 µM (inactive) with LOX IMVI; 97.9 µM (inactive) in the assay on M19-MEL; > 100 µM (inactive) with MDA-N; > 75 µM (inactive) in the assay with NCI-H460; > 41.8 µM (inactive) in the assay with OVCAR-4. The GI50 with OVCAR-5 is > 100 µM (inactive); in the assay on SF-539, > 93.3 µM (inactive); in the assay on SK-MEL-5, > 100 µM (inactive); in the assay on SK-OV-3, > 100 µM (inactive); in the assay on SR it was 53.6 µM (inactive); in the assay with T47D it was 40.4 µM (inactive). The GI50 with TK-10 is > 92.7 µM (inactive); in the assay with UO-31, 44.9 µM (inactive).

Consider `COC(=O)C1=NC(=S)NC(c2ccccc2)C1c1nc2ccccc2o1` (stereo not given), for which the GI50 was > 50 µM (inactive) in the assay with CAKI-1; > 50 µM (inactive) in the assay on CCRF-CEM; > 50 µM (inactive) in the assay on HCC 2998; > 50 µM (inactive) with HCT-116; more than 50 µM in the assay on HCT-15; > 50 µM (inactive) with HOP-62. The GI50 in the assay on LOX IMVI, in the assay with M19-MEL, in the assay with NCI-H460, in the assay on OVCAR-4, in the assay with OVCAR-5 and in the assay on SF-539 was > 50 µM (inactive) throughout. For the same molecule, the GI50 in the assay with SK-OV-3, in the assay with SR, with TK-10 and with UO-31 was > 50 µM (inactive) each time.

Consider `CC(=O)OCC1=CC2CCC3C(C)(CCC[C@]3(C)COC(C)=O)C23CC[C@H]1C3` (stereo not given in full), for which the GI50 is 39.6 µM (inactive) with CAKI-1; 27.9 µM (inactive) in the assay with CCRF-CEM; 22.3 µM (inactive) in the assay on HCC 2998; 38.8 µM (inactive) in the assay on HCT-116; more than 100 µM in the assay on HCT-15; 75.9 µM (inactive) with HOP-62. Also, the GI50 in the assay on LOX IMVI was 25 µM (inactive); in the assay with M19-MEL, 34.5 µM (inactive); in the assay with NCI-H460 it was > 100 µM (inactive); in the assay on OVCAR-4 it was 30.1 µM (inactive); with OVCAR-5, > 100 µM (inactive); in the assay on SF-539, 40.3 µM (inactive). Moreover, the GI50 is 25.5 µM (inactive) in the assay with SK-MEL-5; 64.7 µM (inactive) in the assay on SK-OV-3; 27.5 µM (inactive) in the assay on SR; > 100 µM (inactive) in the assay on TK-10; 53.7 µM (inactive) with UO-31.
